Measured values: patent publication US20160318987A1 (MEDIMMUNE LIMITED, priority 2013, published 2016)
pEC50: −log10 of the molar value. Where a SMILES comes first, the peptide text is derived from it. [ ]: non-standard residue; d: D form. αMeF = C[C@](N)(Cc1ccccc1)C(=O)O; Aib = CC(C)(N)C(=O)O

Legend:
Assay type in all cases: cell-based
Details in all cases: n = 2
[1] = target: T1, hGluc-R (Homo sapiens, UniProt P47871); experiment: cAMP functional assay, cells expressing human glucagon receptor (primary assay)
T1 construct: expressed in transfected cells
Protocol: (§1) The biological activities/receptor potencies of the synthetic GLP-1 peptides described herein are suitably tested for biological activity, e.g., stimulation of one or more cellular receptor responses. Stable cell lines expressing human, mouse, rat, or dog GLP-1 receptor (GLP-1R), glucagon receptor (GCGR) or glucose-dependent insulinotropic peptide (gastric inhibitory polypeptide) receptor (GIPR) are generated in HEK293 cells or CHO cells by standard methods.
(§2) cAMP assays were performed using “assay buffer”: Assay Buffer: 0.1% BSA (Sigma #A3059) in HBSS (Sigma #H8264) with 25 mM HEPES, pH 7.4 and containing 0.5 mM IBMX (Sigma #17018).
(§3) Low protein binding 384-well plates (Greiner #781280) are used to perform eleven 1 in 5 serial dilutions of test samples which are made in assay buffer. All sample dilutions are made in duplicate.
(§4) A frozen cryo-vial of cells expressing the receptor of interest is thawed rapidly in a water-bath, transferred to pre-warmed assay buffer and spun at 240× g for 5 minutes. Cells are re-suspended in assay buffer at a batch-dependent optimized concentration (e.g. hGCGR cells at 2×10^5 cells/ml, hGLP-1R and hGIPR cells at 1×10^5 cells /ml).
(§5) From the dilution plate, a 5 μL replica is stamped onto a black shallow-well u-bottom 384-well plate (Corning #3676). To this, 5 μL cell suspension is added and the plates incubated at room temperature for 30 minutes.
(§6) cAMP levels are measured using a commercially available cAMP dynamic 2 HTRF kit (Cisbio, Cat #62AM4PEJ), following the two step protocol as per manufacturer's recommendations. In brief; anti-cAMP cryptate (donor fluorophore) and cAMP-d2 (acceptor fluorophore) are made up separately by diluting each 1/20 in conjugate & lysis buffer provided in the kit. 5 μL anti-cAMP cryptate is added to all wells of the assay plate, and 5 μL cAMP-d2 is added to all wells except non-specific binding (NSB) wells, to which conjugate and lysis buffer are added. Plates are incubated at room temperature for one hour and then read on an Envision (Perkin Elmer) using excitation wavelength of 320 nm and emission wavelengths of 620 nm & 665 nm. EC50 values of the synthetic peptides determined in cAMP assays are then determined.

[2] = target: T2, hGLP-1R (Homo sapiens, UniProt P43220); experiment: cAMP functional assay, cells expressing human GLP-1 receptor (primary assay)
T2 construct: expressed in transfected cells
Protocol: as §1, §2, §3, §4, §5, §6

[3] = target: T3, hGIP-R (Homo sapiens, UniProt P48546); experiment: cAMP functional assay, cells expressing human GIP receptor (primary assay)
T3 construct: expressed in transfected cells
T3 sequence (P48546 22-466): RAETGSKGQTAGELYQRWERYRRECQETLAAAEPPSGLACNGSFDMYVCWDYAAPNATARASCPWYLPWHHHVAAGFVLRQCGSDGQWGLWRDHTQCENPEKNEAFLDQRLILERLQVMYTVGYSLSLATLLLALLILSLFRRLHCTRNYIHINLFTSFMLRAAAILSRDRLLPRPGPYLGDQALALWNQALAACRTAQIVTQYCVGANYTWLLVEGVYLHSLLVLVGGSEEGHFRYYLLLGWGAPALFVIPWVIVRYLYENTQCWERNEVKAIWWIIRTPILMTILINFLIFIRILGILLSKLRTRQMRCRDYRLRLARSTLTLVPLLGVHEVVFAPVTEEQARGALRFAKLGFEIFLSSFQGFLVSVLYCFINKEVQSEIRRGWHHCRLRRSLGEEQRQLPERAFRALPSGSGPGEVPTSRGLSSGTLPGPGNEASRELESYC
Protocol: as §1, §2, §3, §4, §5, §6

T2 sequence (P43220 24-463): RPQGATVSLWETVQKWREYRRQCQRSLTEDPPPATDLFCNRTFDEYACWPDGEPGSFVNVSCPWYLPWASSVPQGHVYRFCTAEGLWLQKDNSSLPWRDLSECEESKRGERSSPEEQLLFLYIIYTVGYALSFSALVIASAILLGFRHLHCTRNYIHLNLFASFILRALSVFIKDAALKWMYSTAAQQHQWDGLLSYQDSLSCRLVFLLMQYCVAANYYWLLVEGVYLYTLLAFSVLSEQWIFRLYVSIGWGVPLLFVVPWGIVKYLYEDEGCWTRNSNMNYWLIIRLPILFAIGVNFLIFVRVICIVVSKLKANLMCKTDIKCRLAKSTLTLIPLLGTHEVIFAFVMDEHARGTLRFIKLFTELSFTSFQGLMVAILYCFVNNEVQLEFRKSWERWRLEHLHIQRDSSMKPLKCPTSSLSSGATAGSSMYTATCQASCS
T1 sequence (P47871 26-477): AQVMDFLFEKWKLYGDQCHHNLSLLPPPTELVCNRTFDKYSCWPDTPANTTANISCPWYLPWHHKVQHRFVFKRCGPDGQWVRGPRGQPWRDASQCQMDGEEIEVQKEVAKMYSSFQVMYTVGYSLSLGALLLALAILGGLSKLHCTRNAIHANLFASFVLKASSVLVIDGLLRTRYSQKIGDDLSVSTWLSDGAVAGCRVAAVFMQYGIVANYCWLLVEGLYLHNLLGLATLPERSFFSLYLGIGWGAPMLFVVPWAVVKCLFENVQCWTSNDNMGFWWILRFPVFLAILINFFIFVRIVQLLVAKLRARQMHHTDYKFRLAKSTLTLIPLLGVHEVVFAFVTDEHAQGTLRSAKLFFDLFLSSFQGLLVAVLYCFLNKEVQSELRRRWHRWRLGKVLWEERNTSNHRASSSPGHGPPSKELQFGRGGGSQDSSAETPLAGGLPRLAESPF

| Compound | pEC50 [1] | pEC50 [2] | pEC50 [3] |
| --- | --- | --- | --- |
| CCCCCCCCCCCCCCCC(=O)NCCCC[C@H](NC(=O)[C@H](CCCNC(=N)N)NC(=O)CNC(=O)[C@H](CCCCN)NC(=O)[C@@H](NC(=O)[C@H](CC(C)C)NC(=O)[C@H](Cc1c[nH]c2ccccc12)NC(=O)[C@H](C)NC(=O)[C@@H](NC(=O)[C@H](Cc1ccccc1)NC(=O)[C@H](CCC(=O)O)NC(=O)[C@H](CCCCN)NC(=O)[C@H](C)NC(=O)[C@H](C)NC(=O)[C@H](CCC(N)=O)NC(=O)CNC(=O)[C@H](CCC(=O)O)NC(=O)[C@H](CC(C)C)NC(=O)[C@H](Cc1ccc(O)cc1)NC(=O)[C@H](CO)NC(=O)[C@H](CO)NC(=O)[C@@H](NC(=O)[C@H](CC(=O)O)NC(=O)[C@H](CO)NC(=O)[C@@H](NC(=O)[C@H](Cc1ccccc1)NC(=O)[C@@H](NC(=O)CNC(=O)[C@H](CCC(=O)O)NC(=O)C(C)(C)NC(=O)[C@@H](N)Cc1c[nH]cn1)[C@@H](C)O)[C@@H](C)O)C(C)C)[C@@H](C)CC)C(C)C)C(N)=O [SEQ ID NO: 5, H-(Aib)^2-EGT^5 FTSDV^10 SSYLE^15 GQAAK^20 EFIAW^25 LVKGR^30-K(Ε-Palm), reference compound] | 7.04 | 10.60 | 7.04 |
| CC[C@H](C)[C@H](NC(=O)[C@H](Cc1ccccc1)NC(=O)[C@H](CCC(=O)O)NC(=O)[C@H](CCCCN)NC(=O)[C@H](C)NC(=O)[C@H](C)NC(=O)[C@H](CCC(N)=O)NC(=O)CNC(=O)[C@H](CCC(=O)O)NC(=O)[C@H](CC(C)C)NC(=O)[C@H](Cc1ccc(O)cc1)NC(=O)[C@H](CO)NC(=O)[C@H](CO)NC(=O)[C@@H](NC(=O)[C@H](CC(=O)O)NC(=O)[C@H](CO)NC(=O)[C@@H](NC(=O)[C@](C)(Cc1ccccc1)NC(=O)[C@@H](NC(=O)CNC(=O)[C@H](CCC(=O)O)NC(=O)C(C)(C)NC(=O)[C@@H](N)Cc1c[nH]cn1)[C@@H](C)O)[C@@H](C)O)C(C)C)C(=O)N[C@@H](C)C(=O)N[C@@H](Cc1c[nH]c2ccccc12)C(=O)N[C@@H](CC(C)C)C(=O)N[C@H](C(=O)N[C@@H](CCCCN)C(=O)NCC(=O)N[C@@H](CCCNC(=N)N)C(N)=O)C(C)C [SEQ ID NO: 6, H-(Aib)^2-EGT^5-(α-MeF)^6-TSDV^10 SSYLE^15 GQAAK^20 EFIAW^25 LVKGR^30] | 6.82 | 10.59 | 7.13 |
| CC[C@H](C)[C@H](NC(=O)[C@](C)(Cc1ccccc1)NC(=O)[C@H](CCC(=O)O)NC(=O)[C@H](CCCCN)NC(=O)[C@H](C)NC(=O)[C@H](C)NC(=O)[C@H](CCC(N)=O)NC(=O)CNC(=O)[C@H](CCC(=O)O)NC(=O)[C@H](CC(C)C)NC(=O)[C@](C)(Cc1ccccc1)NC(=O)[C@H](CO)NC(=O)[C@H](CO)NC(=O)[C@@H](NC(=O)[C@H](CC(=O)O)NC(=O)[C@H](CO)NC(=O)[C@@H](NC(=O)[C@H](Cc1ccccc1)NC(=O)[C@H](CO)NC(=O)CNC(=O)[C@H](CCC(=O)O)NC(=O)C(C)(C)NC(=O)[C@@H](N)Cc1c[nH]cn1)[C@@H](C)O)C(C)C)C(=O)N[C@@H](C)C(=O)N[C@@](C)(Cc1ccccc1)C(=O)N[C@@H](CC(C)C)C(=O)N[C@H](C(=O)N[C@@H](CCCCN)C(=O)NCC(=O)N[C@@H](CCCNC(=N)N)C(N)=O)C(C)C [SEQ ID NO: 37, H-(Aib)^2-EG-(S)^5-FTSDV^10 SS-(α-MeF)^13-LE^15 GQAAK^20 E-(α-MeF)^22-IA-(α-MeF)^25 LVKGR^30] (H-H[Aib]EGSFTSDVSS[αMeF]LEGQAAKE[αMeF]IA[αMeF]LVKGR-NH2) |  | 9.72 | 6.99 |
| CC[C@H](C)[C@H](NC(=O)[C@](C)(Cc1ccccc1)NC(=O)[C@H](CCC(=O)O)NC(=O)[C@H](CCCCN)NC(=O)[C@H](C)NC(=O)[C@H](C)NC(=O)[C@H](CCC(N)=O)NC(=O)CNC(=O)[C@H](CCC(=O)O)NC(=O)[C@H](CC(C)C)NC(=O)[C@](C)(Cc1ccccc1)NC(=O)[C@H](CO)NC(=O)[C@H](CO)NC(=O)[C@@H](NC(=O)[C@H](CC(=O)O)NC(=O)[C@H](CO)NC(=O)[C@@H](NC(=O)[C@](C)(Cc1ccccc1)NC(=O)[C@H](CO)NC(=O)CNC(=O)[C@H](CCC(=O)O)NC(=O)C(C)(C)NC(=O)[C@@H](N)Cc1c[nH]cn1)[C@@H](C)O)C(C)C)C(=O)N[C@@H](C)C(=O)N[C@@](C)(Cc1ccccc1)C(=O)N[C@@H](CC(C)C)C(=O)N[C@H](C(=O)N[C@@H](CCCCN)C(=O)NCC(=O)NCC(N)=O)C(C)C [SEQ ID NO: 39, H-(Aib)^2-EG-(S)^5-(α-MeF)^6-TSDV^10 SS-(α-MeF)^13-LE^15 GQAAK^20 E-(α-MeF)^22-IA-(α-MeF)^25 LVKG-(G)^30] (H-H[Aib]EGS[αMeF]TSDVSS[αMeF]LEGQAAKE[αMeF]IA[αMeF]LVKGG-NH2) |  | 10.49 | 6.99 |
| CC[C@H](C)[C@H](NC(=O)[C@](C)(Cc1ccccc1)NC(=O)[C@H](CCC(=O)O)NC(=O)[C@H](CCCCN)NC(=O)[C@H](C)NC(=O)[C@H](C)NC(=O)[C@H](CCC(N)=O)NC(=O)CNC(=O)[C@H](CCC(=O)O)NC(=O)[C@H](CC(C)C)NC(=O)[C@](C)(Cc1ccccc1)NC(=O)[C@H](CO)NC(=O)[C@H](CO)NC(=O)[C@@H](NC(=O)[C@H](CC(=O)O)NC(=O)[C@H](CO)NC(=O)[C@@H](NC(=O)[C@](C)(Cc1ccccc1)NC(=O)[C@H](CO)NC(=O)CNC(=O)[C@H](CCC(=O)O)NC(=O)C(C)(C)NC(=O)[C@@H](N)Cc1c[nH]cn1)[C@@H](C)O)C(C)C)C(=O)N[C@@H](C)C(=O)N[C@@](C)(Cc1ccccc1)C(=O)N[C@@H](CC(C)C)C(=O)NC(C)(C)C(=O)N[C@@H](CCCCN)C(=O)NCC(=O)N[C@@H](CCCNC(=N)N)C(N)=O [SEQ ID NO: 40, H-(Aib)^2-EG-(S)^5-(α-MeF)^6-TSDV^10 SS-(α-MeF)^13-LE^15 GQAAK^20 E-(α-MeF)^22-IA-(α-MeF)^25 L-(Aib)27-KGR^30] (H-H[Aib]EGS[αMeF]TSDVSS[αMeF]LEGQAAKE[αMeF]IA[αMeF]L[Aib]KGR-NH2) |  | 9.60 | 6.99 |
| CC[C@H](C)[C@H](NC(=O)[C@](C)(Cc1ccccc1)NC(=O)[C@H](CCC(=O)O)NC(=O)[C@H](CCCCN)NC(=O)[C@H](C)NC(=O)[C@H](C)NC(=O)[C@H](CCC(N)=O)NC(=O)CNC(=O)[C@H](CCC(=O)O)NC(=O)[C@H](CC(C)C)NC(=O)[C@](C)(Cc1ccccc1)NC(=O)[C@H](CO)NC(=O)[C@H](CO)NC(=O)[C@@H](NC(=O)[C@H](CC(=O)O)NC(=O)[C@H](CO)NC(=O)[C@@H](NC(=O)[C@](C)(Cc1ccccc1)NC(=O)[C@H](CO)NC(=O)CNC(=O)[C@H](CCC(=O)O)NC(=O)C(C)(C)NC(=O)[C@@H](N)Cc1c[nH]cn1)[C@@H](C)O)C(C)C)C(=O)N[C@@H](C)C(=O)N[C@@](C)(Cc1ccccc1)C(=O)N[C@@H](CC(C)C)C(=O)N[C@H](C(=O)N[C@@H](CCCCN)C(=O)NC(C)(C)C(=O)N[C@@H](CCCNC(=N)N)C(N)=O)C(C)C [SEQ ID NO: 42, H-(Aib)^2-EG-(S)^5-(α-MeF)^6-TSDV^10 SS-(α-MeF)^13-LE^15 GQAAK^20 E-(α-MeF)^22-IA-(α-MeF)^25 LVK-(Aib)^29-R^30] (H-H[Aib]EGS[αMeF]TSDVSS[αMeF]LEGQAAKE[αMeF]IA[αMeF]LVK[Aib]R-NH2) |  | 10.63 | 6.99 |
| CC[C@H](C)[C@H](NC(=O)[C@](C)(Cc1ccccc1)NC(=O)[C@H](CCC(=O)O)NC(=O)[C@H](CCCCN)NC(=O)[C@H](C)NC(=O)[C@H](C)NC(=O)[C@H](CCC(N)=O)NC(=O)CNC(=O)[C@H](CCC(=O)O)NC(=O)[C@H](CC(C)C)NC(=O)[C@](C)(Cc1ccccc1)NC(=O)[C@H](CO)NC(=O)[C@H](CO)NC(=O)[C@@H](NC(=O)[C@H](CC(=O)O)NC(=O)[C@H](CO)NC(=O)[C@@H](NC(=O)[C@](C)(Cc1ccccc1)NC(=O)[C@H](CO)NC(=O)CNC(=O)[C@H](CCC(=O)O)NC(=O)C(C)(C)NC(=O)[C@@H](N)Cc1c[nH]cn1)[C@@H](C)O)C(C)C)C(=O)N[C@@H](C)C(=O)N[C@@](C)(Cc1ccccc1)C(=O)N[C@@H](CC(C)C)C(=O)NC(C)(C)C(=O)N[C@@H](CCCCN)C(=O)NC(C)(C)C(=O)N[C@@H](CCCNC(=N)N)C(N)=O [SEQ ID NO: 43, H-(Aib)^2-EG-(S)^5-(α-MeF)^6-TSDV^10 SS-(α-MeF)^13-LE^15 GQAAK^20 E-(α-MeF)^22-IA-(α-MeF)^25 L-(Aib)^27-K-(Aib)^29-R^30] (H-H[Aib]EGS[αMeF]TSDVSS[αMeF]LEGQAAKE[αMeF]IA[αMeF]L[Aib]K[Aib]R-NH2) |  | 10.15 | 6.99 |
